Test results from publication PMC7880690, “Chemical genetics and proteome-wide site mapping reveal cysteine MARylation by PARP-7 on immune-relevant protein targets” (eLife, 2021).

How the values were obtained:
[1] = target: T1, GFP-WT-PARP-7 (Homo sapiens, UniProt Q7Z3E1); assay: Labeling by orthogonal NAD+ analogs in HEK 293T lysates expressing GFP-WT-PARP-7; type: biochemical; settings: HEK 293 T cell lysates, 100 µM NAD+ analog
T1 construct: expressed in transfected cells; host or cells: HEK 293T
T1 sequence (Q7Z3E1 1-657): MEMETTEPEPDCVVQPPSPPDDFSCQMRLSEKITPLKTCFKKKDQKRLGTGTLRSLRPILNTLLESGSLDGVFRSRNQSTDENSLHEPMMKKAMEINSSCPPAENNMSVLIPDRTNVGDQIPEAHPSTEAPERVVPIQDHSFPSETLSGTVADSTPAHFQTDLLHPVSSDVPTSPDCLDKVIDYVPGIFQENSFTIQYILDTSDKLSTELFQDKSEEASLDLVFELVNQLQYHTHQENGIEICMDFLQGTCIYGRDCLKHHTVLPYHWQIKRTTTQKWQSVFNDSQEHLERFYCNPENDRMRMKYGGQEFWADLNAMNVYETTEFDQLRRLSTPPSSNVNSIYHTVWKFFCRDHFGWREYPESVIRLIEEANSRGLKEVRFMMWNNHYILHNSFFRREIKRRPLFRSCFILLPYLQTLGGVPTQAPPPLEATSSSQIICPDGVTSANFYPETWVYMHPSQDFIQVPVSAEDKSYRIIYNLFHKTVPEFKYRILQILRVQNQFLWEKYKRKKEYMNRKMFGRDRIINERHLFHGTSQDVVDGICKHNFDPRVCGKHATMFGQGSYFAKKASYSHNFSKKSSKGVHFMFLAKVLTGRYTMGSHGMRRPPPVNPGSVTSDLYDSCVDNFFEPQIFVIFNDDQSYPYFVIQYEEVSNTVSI
From the text: Figure 1. A chemical genetic strategy for identifying the direct MARylation targets of PARP-7. (a) Schematic of chemical genetic approach for identifying direct targets of PARP-7. (b) Crystal structure of human PARP1 bound to the non-hydrolyzable NAD^+ analog benzamide adenine dinucleotide (BAD). PDB: 6bhv. […] (c) Chemical structure of the clickable, orthogonal NAD^+ analogs. 5-Bn-2-e-NAD^+ is the optimized substrate for the floor position engineered PARP-7, IG-PARP-7. 5-Bn-6-a-NAD^+ was used in our previous studies by other floor position engineered PARPs (e.g. PARP14). (d) 5-Bn-2-e-NAD^+ is an efficient substrate for IG-PARP-7. HEK293T cells were transfected with either GFP-WT-PARP-7 (control) or GFP-IG-PARP-7. Cell lysates were prepared and incubated with either 5-Bn-2-e-NAD^+ or 5-Bn-6-a-NAD^+ (100 µM). Following copper-catalyzed click chemistry with biotin-azide, proteins were resolved by SDS-PAGE and biotinylated proteins were detected by Western blot detection using Streptavidin-HRP. Biotinylated proteins represent direct MARylation targets of PARP-7. Figure 1—figure supplement 1. Enrichment of PARP-7 MARylation targets and labeling of PARP-12 IG targets using a chemical genetic approach. (a) Labeling of PARP-7 MARylation targets was performed as described in Figure 1. Neutravidin agarose was used to enrich biotinylated proteins (i.e. MARylation targets). […]

[2] = target: T2, PARP-7 (Homo sapiens, UniProt Q7Z3E1); assay: Endogenous PARP-7 protein levels in A549 cells, western blot; settings: A549 cells treated with Phthal01
T2 sequence (Q7Z3E1 1-657): T1 sequence (Q7Z3E1 1-657)

[3] = target: T3, GFP-PARP-7 (Homo sapiens, UniProt Q7Z3E1); assay: Protein levels of ectopically expressed GFP-PARP-7 in HEK 293 T cell time course; settings: HEK 293 T cell time course, 1 μM
T3 sequence (Q7Z3E1 1-657): T1 sequence (Q7Z3E1 1-657)

SMILES	substrate for GFP-WT-PARP-7 [1]	endogenous PARP-7 protein levels [2]	protein levels of ectopically expressed GFP-PARP-7 [3]
C#Cc1nc(N)c2ncn(C3OC(COP(=O)(O)OP(=O)([O-])OCC4OC([n+]5cc(Cc6ccccc6)cc(C(N)=O)c5)C(O)C4O)C(O)C3O)c2n1 (stereo not drawn) [5-Bn-2-e-NAD^+, 5-benzyl-2-ethynyl-NAD^+]	not a substrate		
N#Cc1ccc(N2CCN(C(=O)c3cc(Cc4n[nH]c(=O)c5ccccc45)ccc3F)CC2)nc1 [Phthal01, 6-(4-(2-fluoro-5-((4-oxo-3,4-dihydrophthalazin-1-yl)methyl)benzoyl)piperazin-1-yl)nicotinonitrile]		increase substantially	increased
